The numbers were not newly measured in US8309543B2 (priority 2003, dated 2012), which cites them from elsewhere.

A value given as a limit tells only on which side of the number the result lay.

For series [1] the following is noted: in vivo.
For another series, the target named is NaV1.8 (Homo sapiens, UniProt Q9Y5Y9). The note with it: read-out: TTX IC50.
The next series has as its target NaV1.3 (Homo sapiens, UniProt Q9NY46). As to conditions: read-out: TTX IC50.

Sequence of NaV1.3 (Q9NY46 whole entry, looked up): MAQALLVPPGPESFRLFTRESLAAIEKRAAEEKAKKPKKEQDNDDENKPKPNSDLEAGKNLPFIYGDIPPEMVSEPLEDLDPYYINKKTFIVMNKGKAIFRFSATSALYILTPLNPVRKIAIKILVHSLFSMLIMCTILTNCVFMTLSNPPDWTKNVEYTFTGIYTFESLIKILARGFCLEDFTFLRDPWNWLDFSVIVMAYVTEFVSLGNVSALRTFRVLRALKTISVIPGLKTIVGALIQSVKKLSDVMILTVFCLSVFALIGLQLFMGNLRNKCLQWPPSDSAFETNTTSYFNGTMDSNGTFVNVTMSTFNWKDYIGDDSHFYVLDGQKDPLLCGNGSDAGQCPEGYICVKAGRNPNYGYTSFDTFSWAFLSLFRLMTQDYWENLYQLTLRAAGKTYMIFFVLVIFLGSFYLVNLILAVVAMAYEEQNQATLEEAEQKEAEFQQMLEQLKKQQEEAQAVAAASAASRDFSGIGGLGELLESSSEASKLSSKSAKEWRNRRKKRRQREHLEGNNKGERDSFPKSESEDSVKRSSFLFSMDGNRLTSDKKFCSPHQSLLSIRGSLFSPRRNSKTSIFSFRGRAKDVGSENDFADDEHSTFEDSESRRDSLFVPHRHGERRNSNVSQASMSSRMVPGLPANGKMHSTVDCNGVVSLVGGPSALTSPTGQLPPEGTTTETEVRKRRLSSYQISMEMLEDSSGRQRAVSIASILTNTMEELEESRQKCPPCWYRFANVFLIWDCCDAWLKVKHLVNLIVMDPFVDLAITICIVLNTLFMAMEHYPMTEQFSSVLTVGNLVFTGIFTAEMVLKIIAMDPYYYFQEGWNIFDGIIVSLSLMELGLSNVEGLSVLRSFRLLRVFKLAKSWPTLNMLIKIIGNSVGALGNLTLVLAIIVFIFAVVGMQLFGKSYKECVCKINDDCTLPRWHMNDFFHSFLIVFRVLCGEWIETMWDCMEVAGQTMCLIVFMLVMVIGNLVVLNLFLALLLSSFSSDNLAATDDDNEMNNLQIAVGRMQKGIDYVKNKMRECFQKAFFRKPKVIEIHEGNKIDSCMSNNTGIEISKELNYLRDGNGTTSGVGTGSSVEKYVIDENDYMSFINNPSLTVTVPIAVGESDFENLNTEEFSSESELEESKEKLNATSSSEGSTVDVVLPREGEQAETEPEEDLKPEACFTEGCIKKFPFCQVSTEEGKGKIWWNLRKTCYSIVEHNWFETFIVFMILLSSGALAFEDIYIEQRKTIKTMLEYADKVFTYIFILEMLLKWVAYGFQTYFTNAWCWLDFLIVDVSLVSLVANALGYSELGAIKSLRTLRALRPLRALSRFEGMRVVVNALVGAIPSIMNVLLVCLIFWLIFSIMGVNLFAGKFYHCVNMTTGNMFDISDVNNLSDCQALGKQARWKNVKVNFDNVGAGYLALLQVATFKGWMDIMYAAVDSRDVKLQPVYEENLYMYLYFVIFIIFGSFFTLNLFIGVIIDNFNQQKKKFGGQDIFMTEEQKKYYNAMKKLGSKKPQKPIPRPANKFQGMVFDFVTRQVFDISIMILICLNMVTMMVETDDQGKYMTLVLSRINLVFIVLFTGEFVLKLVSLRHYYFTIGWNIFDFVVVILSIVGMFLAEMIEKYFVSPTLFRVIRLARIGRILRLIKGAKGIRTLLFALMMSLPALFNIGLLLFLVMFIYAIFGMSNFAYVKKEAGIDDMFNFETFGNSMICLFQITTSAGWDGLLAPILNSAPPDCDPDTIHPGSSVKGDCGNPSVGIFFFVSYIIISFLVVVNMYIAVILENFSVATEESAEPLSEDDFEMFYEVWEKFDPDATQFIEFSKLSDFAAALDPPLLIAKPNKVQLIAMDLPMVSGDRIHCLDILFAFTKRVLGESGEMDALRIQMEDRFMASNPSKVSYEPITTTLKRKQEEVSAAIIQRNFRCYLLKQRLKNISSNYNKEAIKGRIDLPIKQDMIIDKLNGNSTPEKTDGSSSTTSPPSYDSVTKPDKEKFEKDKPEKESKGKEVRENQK
Sequence of NaV1.8 (Q9Y5Y9 whole entry, looked up): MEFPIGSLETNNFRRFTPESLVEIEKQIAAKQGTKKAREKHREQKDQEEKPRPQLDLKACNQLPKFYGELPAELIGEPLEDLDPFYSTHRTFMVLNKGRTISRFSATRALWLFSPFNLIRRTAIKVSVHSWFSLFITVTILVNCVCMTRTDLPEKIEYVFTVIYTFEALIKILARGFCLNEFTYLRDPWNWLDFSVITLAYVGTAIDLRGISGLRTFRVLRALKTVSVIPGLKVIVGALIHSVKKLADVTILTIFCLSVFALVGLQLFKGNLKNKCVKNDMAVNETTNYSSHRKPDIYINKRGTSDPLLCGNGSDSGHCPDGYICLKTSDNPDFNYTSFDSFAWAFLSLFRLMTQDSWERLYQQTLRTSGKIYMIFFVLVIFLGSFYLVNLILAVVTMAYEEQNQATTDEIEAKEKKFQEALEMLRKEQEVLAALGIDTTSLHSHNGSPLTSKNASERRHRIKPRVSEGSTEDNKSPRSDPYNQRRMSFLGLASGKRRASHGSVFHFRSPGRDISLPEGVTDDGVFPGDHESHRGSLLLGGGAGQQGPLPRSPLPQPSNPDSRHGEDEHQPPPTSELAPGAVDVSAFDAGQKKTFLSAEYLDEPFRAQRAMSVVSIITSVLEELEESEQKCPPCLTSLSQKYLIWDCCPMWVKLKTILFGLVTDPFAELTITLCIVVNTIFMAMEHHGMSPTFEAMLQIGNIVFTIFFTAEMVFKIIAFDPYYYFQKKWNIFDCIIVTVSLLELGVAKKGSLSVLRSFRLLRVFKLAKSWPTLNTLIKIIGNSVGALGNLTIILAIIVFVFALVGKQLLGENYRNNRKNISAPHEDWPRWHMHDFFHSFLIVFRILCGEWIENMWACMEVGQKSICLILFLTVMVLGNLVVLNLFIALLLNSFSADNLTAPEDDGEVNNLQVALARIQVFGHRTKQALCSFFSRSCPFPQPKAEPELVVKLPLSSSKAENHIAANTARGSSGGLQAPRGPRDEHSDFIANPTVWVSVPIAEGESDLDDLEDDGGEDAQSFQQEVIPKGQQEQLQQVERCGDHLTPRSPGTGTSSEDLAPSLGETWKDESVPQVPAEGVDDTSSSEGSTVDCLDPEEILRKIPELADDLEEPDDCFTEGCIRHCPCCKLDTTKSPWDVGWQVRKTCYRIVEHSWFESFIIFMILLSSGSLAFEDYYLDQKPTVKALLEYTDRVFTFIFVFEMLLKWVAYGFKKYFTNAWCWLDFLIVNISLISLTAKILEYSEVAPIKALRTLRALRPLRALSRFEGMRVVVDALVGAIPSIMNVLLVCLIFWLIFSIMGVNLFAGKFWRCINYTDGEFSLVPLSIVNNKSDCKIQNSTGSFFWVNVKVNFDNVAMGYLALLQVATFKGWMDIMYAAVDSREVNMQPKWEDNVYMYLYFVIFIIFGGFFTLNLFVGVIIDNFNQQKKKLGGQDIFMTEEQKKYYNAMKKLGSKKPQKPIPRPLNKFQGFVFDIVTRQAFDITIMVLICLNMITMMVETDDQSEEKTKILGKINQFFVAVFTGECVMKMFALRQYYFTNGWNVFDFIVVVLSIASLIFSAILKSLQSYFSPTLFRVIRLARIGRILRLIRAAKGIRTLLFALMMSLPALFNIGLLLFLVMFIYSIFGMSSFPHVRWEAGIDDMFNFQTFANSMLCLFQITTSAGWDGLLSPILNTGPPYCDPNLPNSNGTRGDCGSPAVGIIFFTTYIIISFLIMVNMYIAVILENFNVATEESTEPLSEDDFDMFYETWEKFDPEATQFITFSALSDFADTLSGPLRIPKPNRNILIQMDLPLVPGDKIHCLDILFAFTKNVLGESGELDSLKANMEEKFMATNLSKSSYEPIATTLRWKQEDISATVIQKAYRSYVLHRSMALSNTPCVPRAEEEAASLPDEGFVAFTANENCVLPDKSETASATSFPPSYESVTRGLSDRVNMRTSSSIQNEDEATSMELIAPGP

`NCC1(CC(=O)O)CCCCC1` [Gabapentin]: the “share of patients in which the drug works” value in series [1] is recorded as 60%. On to `NC1=N[C@H](O)[C@H]2[C@H]3O[C@]4(O)O[C@@H]([C@@H](O)[C@@]2(N1)[C@@H]4O)[C@]3(O)CO` [TTX, tetrodotoxin], for which the values for the 50% inhibitory concentration (IC50) on NaV1.8 and at NaV1.3 were over 50000 nM and 15 nM, respectively.

By IC50 is commonly meant the concentration that inhibits the measured activity by half.
